{"source": "patent US20080220056A1", "about": "“Treatment for liver disease” (UNIVERSITY OF SOUTHAMPTON, priority 2002, published 2008)", "key": {"[1]": {"system": "carbon tetrachloride model of liver fibrosis", "test": "Carbon tetrachloride (in vivo) model of liver fibrosis, weekly gliotoxin injection", "set-up": "species or system rat", "details": "for Liver α-sma staining (number of α-sma-positive cells) / Serum ALP / Serum ALT / Sirius red staining (mid intralobular μm): weekly gliotoxin injection 3 mg/kg i.p.", "protocol": "Rats were randomly sorted into groups and treated with 2 mL CCl4:olive oil (1:1 [vol/vol])/kg body weight by intraperitoneal injection twice weekly to cause liver fibrosis. Control animals were treated with 1 mL olive oil/kg body weight by intraperitoneal injection. Gliotoxin was administered at up to 3 mg gliotoxin/kg body weight by intraperitoneal injection. Gliotoxin was dissolved in dimethyl sulfoxide (DMSO) as a vehicle, and control animals received DMSO alone.\nAt the required time, rats were killed by carbon dioxide asphyxiation and tissues removed for analysis. Serum was prepared and analyzed for alkaline phosphatase and alanine aminotransferase activities essentially as previously described. (Wright et al., Biochem. Pharmacol., (1992) 43:237-243) Histochemical staining of formalin-fixed liver sections with H&E, Sirius red, and immunochemical staining for α-smooth muscle actin were performed essentially as previously described (Iredale et al.,—1998—supra)"}, "[2]": {"system": "rat hepatic stellate cells", "test": "Low molecular weight DNA fragmentation (nucleosomal ladder) in rat hepatic stellate cells", "assay_type": "cell-based", "details": "rat HSC; 1.5 μmol/L; up to four hours", "protocol": "Hepatic stellate cells cultured in 35-mm diameter dishes (Greiner) were harvested, pelleted by centrifugation and DNA fragmentation determined as outlined elsewhere (Elsharkawy et al., Hepatology (1999) 30:761-769). Propidium Iodide Flow-Activated Cell Sorting Analysis Detached cells were pelleted by centrifugation, washed in PBS, and resuspended in HYPO buffer (0.1% wt/vol) Na3Citrate and 0.1% (wt/vol) Triton™ X-100 containing […] propidium iodide and incubated for 1 hour. The cells were then analyzed by fluorescence-activated cell sorter (FACS) with a Becton Dickinson (San Jose, Calif.) FACScan instrument using a 488 nm excitation wavelength with a band pass filter set at 530 nm. Attached cells were scraped in HYPO buffer after washing cells with PBS.\nThe effect of gliotoxin on the cleavage of DNA to a nucleosomal ladder was examined because this phenomenon is characteristic of apoptosis. Culture activated (14-day) rat hepatic stellate cells in six well plates were treated with either 0.05% (vol/vol) DMSO for four hours or 1.5 μmol/L gliotoxin for zero hours, half an hour, one hour, two hours or four hours. At each time point, both detached and attached cells were harvested together and low molecular weight DNA (20,000 g supernatant) fragmentation determined as outlined in the materials and methods section. At least three separate experiments were performed. 1 kilobase DNA ladder (Promega) was used as a molecular weight marker.\nThe effect of various compounds on DNA laddering was then determined. Culture-activated (14-day) rat hepatic stellate cells in six-well plates were treated with:\nAfter fours hours of treatment, DNA fragmentation was determined.\nCulture activated (14 day) rat hepatic stellate cells in six well plates were treated with: • (a) 0.05% (vol/vol) DMSO; • (b) 1.5 μmol/L gliotoxin; • (c) 1.5 μmol/L gliotoxin with 100 μmol/L tamoxifen; • (d) 1.5 μmol/L gliotoxin with […] actinomycin d; • (e) 1.5 μmol/L gliotoxin with 10 μmol/L cycloheximide; • (f) 1.5 μmol/L gliotoxin with 10 μmol/L cyclosporin; • (g) 1.5 μmol/L gliotoxin with […] m-iodobenzylguanidine; • (h) 1.5 μmol/L gliotoxin with 50 μmol/L quin-2-am; • (i) 50 μmol/L guin-2-am alone; • (j) 250 μmol/L m-iodobenzylguanidine; • (k) 10 μmol/L cyclosporin; • (l) 10 μmol/L cycloheximide; • (m) 1 μg/ml actinomycin d; or • (n) 100 μmol/L tamoxifen.\nAfter four hours of treatment, DNA fragmentation was determined as outlined in Materials and Methods."}, "[3]": {"system": "rat hepatic stellate cells", "test": "Morphology and detachment of culture-activated rat hepatic stellate cells (light microscopy)", "assay_type": "cell-based", "source_text": "Rat hepatic stellate cells (HSCs) were isolated by pronase/collagenase perfusion and purified by isopycnic density centrifugation in Opti-prep™ (Nycomed, Amersham, England) and elutriation essentially as previously described (Bahr et al., Hepatology (1999) 29:839-848). Human hepatic stellate cells were isolated from discarded resected liver via a similar protocol (Trim et al., J. Biol. Chem., (2000) 275:6657-6663). The use of human liver tissue for scientific investigation was approved by the UK South and West Local Research Ethics Committee and was subject to patient consent.\nIt has been shown recently that liver myofibroblasts may contribute to liver fibrogenesis and that liver myofibroblasts may have the potential to contaminate passaged hepatic stellate cell cultures (Knittel et al., Gastronenterology, (1999) 117:1205-1221). In this study, only primary cultures of hepatic stellate cells were used, which were desmin and glial fibrillary acid protein positive (markers shown to be expressed in hepatic stellate cells, but not liver myofibroblasts—Knittel et al., supra).\nCells were treated with gliotoxin dissolved in DMSO vehicle (added to medium from a 2000-fold molar concentrated stock). Control cells received DMSO vehicle only (i.e., 0.05% vol/vol). All other additions to culture medium were made from concentrated stocks dissolved in DMSO or by direct addition to culture medium. Protein contents of wells were determined using the Lowry assay (Lowry et al., J. Biol. Chem., (1951)193: 265-275).\nCulture activated rat (14 day) and human (24 day) hepatic stellate cells were treated with DMSO solvent control or 1.5 μMol/L gliotoxin. […] Hepatic stellate cells changed from a flattened fibroblastic phenotype with distinct cell-cell interfaces to a substratum detached, rounded, and blebbed morphology."}}, "note": "Marks after values point to notes of the source that are not given here."}
{"smiles": "CN1C(=O)[C@]23CC4=CC=C[C@H](O)[C@H]4N2C(=O)[C@@]1(CO)SS3", "note": "[gliotoxin]", "values": [{"measurement": "liver serum enzymes caused by carbon tetrachloride treatment", "setting": "[1]; gliotoxin administered during CCl4 treatment", "result": "significantly reduces the levels of liver serum enzymes"}, {"measurement": "number of activated hepatic stellate cells and thickness of fibrotic bands", "setting": "[1]; gliotoxin administered during the liver insult (CCl4)", "result": "significantly reduces the number of activated hepatic stellate cells and thickness of fibrotic bands"}, {"measurement": "hepatotoxicity of long term administration", "setting": "[1]; weekly gliotoxin", "result": "no evidence that long term administration of gliotoxin is itself hepatotoxic"}, {"measurement": "Liver α-sma staining (number of α-sma-positive cells)", "setting": "[1]; CCl4 twice weekly 4 weeks", "result": "6 ± 1.2"}, {"measurement": "Serum ALP", "setting": "[1]; CCl4 twice weekly 4 weeks", "result": "429 ± 25^a μ/mL"}, {"measurement": "Serum ALT", "setting": "[1]; CCl4 twice weekly 4 weeks", "result": "300 ± 111^b μ/mL"}, {"measurement": "Sirius red staining (mid intralobular μm)", "setting": "[1]; CCl4 twice weekly 4 weeks", "result": "4.6 ± 3.1^£ μm"}, {"measurement": "Liver α-sma staining (number of α-sma-positive cells)", "setting": "[1]; no CCl4 (olive oil 4 weeks)", "result": "1.4 ± 1.38"}, {"measurement": "Serum ALP", "setting": "[1]; no CCl4 (olive oil 4 weeks)", "result": "249 ± 26", "unit": "μ/mL"}, {"measurement": "Serum ALT", "setting": "[1]; no CCl4 (olive oil 4 weeks)", "result": "89 ± 58", "unit": "μ/mL"}, {"measurement": "Sirius red staining (mid intralobular μm)", "setting": "[1]; no CCl4 (olive oil 4 weeks)", "result": 0, "unit": "μm"}, {"measurement": "cleavage of DNA to a nucleosomal ladder", "setting": "[2]", "result": "time dependent increase in DNA cleavage to a nucleosomal ladder"}, {"measurement": "detachment from culture dish substratum", "setting": "[3]; 1.5 μMol/L gliotoxin, within four hours", "result": "a majority of the hepatic stellate cells had detached"}, {"measurement": "morphologic alterations", "setting": "[3]; culture activated (14 day) rat HSC, 1.5 μmol/L", "result": "striking morphologic alterations within one hour"}]}
